# pIC50: −log10 of the molar value.
# Biological target: T1, TLR8 (Homo sapiens, UniProt Q9NR97)
# T1 sequence (Q9NR97 27-1041): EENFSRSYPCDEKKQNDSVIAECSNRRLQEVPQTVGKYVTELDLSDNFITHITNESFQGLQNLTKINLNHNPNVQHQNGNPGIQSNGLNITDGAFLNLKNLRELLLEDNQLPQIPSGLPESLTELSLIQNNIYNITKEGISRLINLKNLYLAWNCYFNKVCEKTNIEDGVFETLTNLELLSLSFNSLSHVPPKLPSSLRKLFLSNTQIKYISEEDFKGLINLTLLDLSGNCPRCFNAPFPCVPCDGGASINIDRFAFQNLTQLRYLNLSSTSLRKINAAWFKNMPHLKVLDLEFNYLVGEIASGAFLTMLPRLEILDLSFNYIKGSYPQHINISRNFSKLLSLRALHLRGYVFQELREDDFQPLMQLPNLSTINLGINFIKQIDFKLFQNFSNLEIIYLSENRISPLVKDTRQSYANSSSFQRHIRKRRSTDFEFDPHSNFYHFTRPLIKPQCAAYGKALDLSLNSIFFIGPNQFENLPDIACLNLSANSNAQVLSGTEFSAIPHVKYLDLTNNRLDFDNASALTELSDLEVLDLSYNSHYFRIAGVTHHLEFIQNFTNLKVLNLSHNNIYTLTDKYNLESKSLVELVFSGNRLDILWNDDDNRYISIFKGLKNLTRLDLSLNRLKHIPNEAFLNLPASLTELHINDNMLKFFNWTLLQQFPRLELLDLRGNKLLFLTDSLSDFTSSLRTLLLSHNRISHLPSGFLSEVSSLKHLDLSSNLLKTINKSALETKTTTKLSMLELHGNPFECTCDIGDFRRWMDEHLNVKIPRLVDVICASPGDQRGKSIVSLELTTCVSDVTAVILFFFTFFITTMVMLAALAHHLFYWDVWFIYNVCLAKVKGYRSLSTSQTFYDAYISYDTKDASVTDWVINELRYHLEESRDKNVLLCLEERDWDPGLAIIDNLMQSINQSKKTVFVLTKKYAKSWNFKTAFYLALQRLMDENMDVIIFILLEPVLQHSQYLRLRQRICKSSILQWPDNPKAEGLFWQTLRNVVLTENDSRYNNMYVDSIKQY
# Test: huPBMC TLR8 Antagonist IL-6 TR-FRET Assay
# Type: cell-based
# Set-up: Fresh blood was collected from normal human donors; endogenous in cells; host or cells: human PBMCs from fresh donor blood
# Conditions: human PBMCs stimulated with ssRNA40 1 μg/ml (DOTAP), 14-16 hrs; IL-6 TR-FRET read-out
# Method in brief: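 Human PBMCs from fresh donor blood (150,000 cells/well) stimulated 14–16 h at 37 °C with DOTAP-complexed ssRNA40 (final 1 μg/ml for TLR8, 10 μg/mL for TLR7) or ODN2216 (final 0.3 μM, TLR9), 0.25% DMSO, ten-point 1/3 compound dilutions. Supernatant IL-6 read by HTRF (TLR8); IFNα by IFNα2b AlphaLISA (TLR7/TLR9).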
row,SMILES,pIC50
1,"Cc1cc(N2CCc3c(c(C)nn3CC34CCC(N(C)C5CCC5)(CC3)CC4)C2)c2cnn(C)c2n1 [compound 79, N-cyclobutyl-4-((5-(1,6-dimethyl-1H-pyrazolo[3,4-b]pyridin-4-yl)-3-methyl-4,5,6,7-tetrahydro-1H-pyrazolo[4,3-c]pyridin-1-yl)methyl)-N-methylbicyclo[2.2.2]octan-1-amine]",6.87
2,"Cc1cc(N2CCc3c(c(C)nn3CC34CCC(N5C[C@H](O)[C@@H](O)C5)(CC3)CC4)C2)c2cnn(C)c2n1 [compound 80, (3S,4S)-1-(4-((5-(1,6-dimethyl-1H-pyrazolo[3,4-b]pyridin-4-yl)-3-methyl-4,5,6,7-tetrahydro-1H-pyrazolo[4,3-c]pyridin-1-yl)methyl)bicyclo[2.2.2]octan-1-yl)pyrrolidine-3,4-diol]",6.33
3,"Cc1nn(CC23CCC(N4CCCC4)(CC2)CC3)c2c1CN(c1ccnc(-c3ccccc3)c1)CC2 [compound 85, 3-methyl-5-(2-phenylpyridin-4-yl)-1-((4-(pyrrolidin-1-yl)bicyclo[2.2.2]octan-1-yl)methyl)-4,5,6,7-tetrahydro-1H-pyrazolo[4,3-c]pyridine]",6.65
4,"Cc1cc(N2CCc3c(c(C)nn3CCC34CCC(N)(CC3)CC4)C2)c2cnn(C)c2n1 [compound 91, 4-(2-(5-(1,6-dimethyl-1H-pyrazolo[3,4-b]pyridin-4-yl)-3-methyl-4,5,6,7-tetrahydro-1H-pyrazolo[4,3-c]pyridin-1-yl)ethyl)bicyclo[2.2.2]octan-1-amine]",6.42

# The remaining compounds from weak to strong by pIC50, led by results:
row,pIC50,SMILES
1,6.87,"Cc1cc(N2CCc3c(c(C)nn3CC34CCC(N5CC[C@H](O)C5)(CC3)CC4)C2)c2cnn(C)c2n1 [compound 75, (S)-1-(4-((5-(1,6-dimethyl-1H-pyrazolo[3,4-b]pyridin-4-yl)-3-methyl-4,5,6,7-tetrahydro-1H-pyrazolo[4,3-c]pyridin-1-yl)methyl)bicyclo[2.2.2]octan-1-yl)pyrrolidin-3-ol]"
2,7.32,"Cc1cc(N2CCc3c(c(C)nn3CC34CCC(N5CCCC5)(CC3)CC4)C2)c2ccncc2n1 [compound 86, 2-methyl-4-(3-methyl-1-((4-(pyrrolidin-1-yl)bicyclo[2.2.2]octan-1-yl)methyl)-6,7-dihydro-1H-pyrazolo[4,3-c]pyridin-5(4H)-yl)-1,7-naphthyridine]"
3,7.40,"Cc1cc(N2CCc3c(c(C)nn3CC34CCC(N)(CC3)CC4)C2)c2ccnc(C)c2n1 [compound 92, 4-((5-(2,8-dimethyl-1,7-naphthyridin-4-yl)-3-methyl-4,5,6,7-tetrahydro-1H-pyrazolo[4,3-c]pyridin-1-yl)methyl)bicyclo[2.2.2]octan-1-amine]"

# From patent publication US20240376099A1, “COMPOUNDS AND COMPOSITIONS AS INHIBITORS OF ENDOSOMAL TOLL-LIKE RECEPTORS” (Novartis AG, priority 2016, published 2024)
